# According to publication PMC3356326 (PLoS ONE, 2012):
# Read-outs that look alike come from different tables or passages of the source.
# Assays:
# [1] = Static PET image quantification of tissue uptake at 60 min (last frame of dynamic scan); format: in vivo; settings: female, athymic nude, mouse, iv, 3.7 MBq, total radioactivity, tail-vein injection ~3.7 MBq, static PET image at 1 h, mean ± SD, n = 4/group
# Experimental: The U87MG human glioblastoma tumor model, which has been documented to express high level of integrin αvβ3 [32], was selected for PET imaging. The U87MG cells obtained from ATCC (Manassas, VA) were cultured in DMEM medium supplemented with 10% fetal bovine serum (FBS), 100 IU/mL penicillin, and 100 µg/mL streptomycin (Invitrogen), and in a humidified atmosphere containing 5% CO2 at 37°C. The xenografted model was established by inoculation of 5×10^6 cells into the left shoulder of each female athymic nude mouse at 5–6 weeks of age (Harlan Laboratories). Tumor growth was monitored by caliper measurements of perpendicular axes of the tumor three times a week after the tumors are palpable. The tumor volume was determined as the formula: V = a×(b^2)/2, where a and b are the length and width of each tumor, respectively, in mm. The U87MG xenografted mice underwent PET imaging when the tumor volume reached about 300 mm^3 (about 3 weeks after inoculation). This study was approved by the NIH Clinical Center Animal Care and Use Committee (ACUC). Moreover, all mice were maintained in a specific pathogen-free facility in accordance with the requirements of the ACUC.
# (§1) Dynamic PET data acquisition was performed using an Inveon microPET scanner (Siemens Medical Solutions). With the assistance of the Inveon system's positioning laser, U87MG tumor-bearing mouse was placed with its tumor located at the center of field of view (FOV), where the highest imaging sensitivity can be achieved. […] During the acquisition period, a thermostat-controlled thermal heater maintained the body temperature of mice. PET images were reconstructed with 2 iterations of 3-dimensional ordered-subsets expectation maximum (3D OSEM) with 14 subsets, followed by 18 iterations of maximum a posteriori (MAP) algorithm with a smoothing parameter of 0.1 (frame rates: 10×30 s, 5×60 s, 5×120 s and 10×240 s). No attenuation correction was performed in this study.
# (§2) In the dynamic PET image analysis, regions of interest (ROIs) were measured with the Inveon Research Workplace (IRW) 3.0 software. ROI was determined by manually superimposing the ellipsoid volume of interest (VOI) to the target tissue on the last frame of the entire 60-min dynamic image sequence. Then a threshold of 30% maximum was set to screen the voxels with lower values in the entire VOI because of possible tumor heterogeneity and shape irregularity. The time–activity curves were derived by superimposing the same VOI on each time frame of the entire 60-min dynamic image sequence and the value of each time point represents the overall concentration of radioactivity in the tissue. The activity concentrations were determined by the mean pixel intensity within each VOI, which were converted to µCi/ml using a calibration constant. Assuming the tissue density of 1 g/ml, the ROI activity was converted to µCi/g and normalized as percent injected dose per gram (%ID/g). The tissue uptake quantification of static scan at 60 min was determined from the last frame of dynamic images. The arterial blood input function was estimated by drawing a VOI in the region of left ventricle on the reconstructed PET image at the 0.5 min time point (the second frame of dynamic PET image series). The region of muscle contralateral to the tumor was selected as the reference tissue.
# U87MG tumor-bearing mice = assay: Logan graphical analysis with image-derived input function of 60-min dynamic PET: volumes of distribution; format: in vivo, mouse; settings: mean ± SD, n = 4/group
# Experimental: as §1, §2
# Kinetic analysis of regional TACs was performed based on two-tissue (three-compartment) and one-tissue (two-compartment) model (Fig. 2). The three-compartment model consists of unmetabolized radiotracer in arterial blood plasma (Cp), free or non-specific binding tracer in interstitial and intracellular space (Ct), and tracer bound specifically to integrin (Cm). Both Ct and Cm occupy the same physical volume. The ROI(t) represents the sum of radioactivity from all compartments and includes the plasma volume fraction. Similarly, the two-compartment model describes RGD tracer kinetics using muscle as reference tissue and Ctref represents free (non-specific binding) tracer in the reference tissue (muscle) region. Generally speaking, kinetic parameters K1 [ml/g/min], k2 [1/min], k3 [1/min], k4 [1/min] represent the transport or binding rates of plasma perfusion into tissue, clearance from plasma, specific binding and dissociation, respectively.
# Based on Logan plot shown in Eq. 1 [28], [33], the ratio between the integral of Cp(t) and the instantaneous value of ROI(t), and the ratio between the integral and the instantaneous value of ROI(t) become linearly related when the exchange between the target tissue and plasma reaches an equilibrium (t>t*). [drawing 1] (1) DV denotes the distribution volume and can be easily calculated from the linear regression. DV is a measure of the capacity of tissue to bind a particular tracer and can be regarded as the sum of specific (VS) and nonspecific distribution (VND). [drawing 2] (2) [drawing 3] (3) Total volume of distribution is defined in equation 4. [drawing 4] (4) K1, k2, k3, and k4 are calculated by linear fitting to 60-min dynamic PET data.
# [2] = kidneys, U87MG tumor-bearing mice, read-out: Tissue uptake, Kidneys
# [3] = liver, U87MG tumor-bearing mice, read-out: Tissue uptake, Liver
# [4] = muscle, U87MG tumor-bearing mice, read-out: Tissue uptake, Muscle
# [5] = tumor (U87MG xenograft), U87MG xenograft, female athymic nude mice, read-out: Tissue uptake, Tumor
smiles,measurement,setting,value
N=C(N)NCCC[C@@H]1NC(=O)[C@H](CCCCNC(=O)CC[C@H](NC(=O)COCCOCCOCCNC(=S)Nc2ccc(C[C@H]3CN(CC(=O)O)CCN(CC(=O)O)CCN3CC(=O)O)cc2)C(=O)NCCCC[C@@H]2NC(=O)[C@@H](Cc3ccc(O)cc3)NC(=O)[C@H](CC(=O)O)NC(=O)CNC(=O)[C@H](CCCNC(=N)N)NC2=O)NC(=O)[C@@H](Cc2ccc(O)cc2)NC(=O)[C@H](CC(=O)O)NC(=O)CNC1=O [[^18F]AlF-NOTA-PRGD2] [listing 1 of 2 here],tissue uptake at 1 h,[1]; [2],4.67 ± 1.08 %ID/g
same,tissue uptake at 1 h,[1]; [3],1.21 ± 0.54 %ID/g
same,tissue uptake at 1 h,[1]; [4],0.53 ± 0.11 %ID/g
N=C(N)NCCC[C@@H]1NC(=O)[C@H](CCCCNC(=O)CC[C@H](NC(=O)COCCOCCOCCNC(=S)Nc2ccc(C[C@H]3CN(CC(=O)O)CCN(CC(=O)O)CCN3CC(=O)O)cc2)C(=O)NCCCC[C@@H]2NC(=O)[C@@H](Cc3ccc(O)cc3)NC(=O)[C@H](CC(=O)O)NC(=O)CNC(=O)[C@H](CCCNC(=N)N)NC2=O)NC(=O)[C@@H](Cc2ccc(O)cc2)NC(=O)[C@H](CC(=O)O)NC(=O)CNC1=O [[^18F]AlF-NOTA-PRGD2] [listing 2 of 2 here],"Volume of Distribution (VT), Kidneys",U87MG tumor-bearing mice,5.24±0.24
same,"Volume of Distribution (VT), Liver",U87MG tumor-bearing mice,1.23±0.085
same,"Volume of Distribution (VT), Muscle",U87MG tumor-bearing mice,0.53±0.086
same,"Volume of Distribution (VT), Tumor",U87MG tumor-bearing mice,2.65±0.34
"CC(F)C(=O)NCCOCCOCCOCC(=O)N[C@@H](CCC(=O)NCCCC[C@@H]1NC(=O)[C@@H](Cc2ccc(O)cc2)NC(=O)[C@H](CC(=O)O)NC(=O)CNC(=O)[C@H](CCCNC(=N)N)NC1=O)C(=O)NCCCC[C@@H]1NC(=O)[C@@H](Cc2ccc(O)cc2)NC(=O)[C@H](CC(=O)O)NC(=O)CNC(=O)[C@H](CCCNC(=N)N)NC1=O (some centres unmarked) [[^18F]FPPRGD2, reference compound]",tissue uptake at 1 h,[1]; [2],2.78 ± 0.58 %ID/g
same,tissue uptake at 1 h,[1]; [3],1.1 ± 0.18 %ID/g
same,tissue uptake at 1 h,[1]; [4],0.36 ± 0.089 %ID/g
same,tissue uptake at 1 h,[1]; [5],2.91 ± 0.35 %ID/g
same,"Volume of Distribution (VT), Kidneys",U87MG tumor-bearing mice,4.10±0.27
same,"Volume of Distribution (VT), Liver",U87MG tumor-bearing mice,0.97±0.14
same,"Volume of Distribution (VT), Muscle",U87MG tumor-bearing mice,0.44±0.071
same,"Volume of Distribution (VT), Tumor",U87MG tumor-bearing mice,2.35±0.22
"N=C(N)NCCC[C@@H]1NC(=O)[C@H](CCCCNC(=O)CC[C@H](NC(=O)COCCOCCOCCNC(=S)Nc2ccc(C[C@H]3CN(CC(=O)O)CCN(CC(=O)O)CCN3CC(=O)O)cc2)C(=O)NCCCC[C@@H]2NC(=O)[C@@H](Cc3ccc(O)cc3)NC(=O)[C@H](CC(=O)O)NC(=O)CNC(=O)[C@H](CCCNC(=N)N)NC2=O)NC(=O)[C@@H](Cc2ccc(O)cc2)NC(=O)[C@H](CC(=O)O)NC(=O)CNC1=O [[^68Ga]Ga-NOTA-PRGD2, metal not drawn]",tissue uptake at 1 h,[1]; [5],2.42 ± 0.56 %ID/g
N=C(N)NCCC[C@@H]1NC(=O)[C@H](CCCCNC(=O)CC[C@H](NC(=O)COCCOCCOCCNC(=S)Nc2ccc(C[C@H]3CN(CC(=O)O)CCN(CC(=O)O)CCN3CC(=O)O)cc2)C(=O)NCCCC[C@@H]2NC(=O)[C@@H](Cc3ccc(O)cc3)NC(=O)[C@H](CC(=O)O)NC(=O)CNC(=O)[C@H](CCCNC(=N)N)NC2=O)NC(=O)[C@@H](Cc2ccc(O)cc2)NC(=O)[C@H](CC(=O)O)NC(=O)CNC1=O [[^68Ga]Ga-NOTA-PRGD2] [metal not drawn],"Volume of Distribution (VT), Kidneys",U87MG tumor-bearing mice,3.37±0.56
same,"Volume of Distribution (VT), Liver",U87MG tumor-bearing mice,1.24±0.11
same,"Volume of Distribution (VT), Muscle",U87MG tumor-bearing mice,0.57±0.064
same,"Volume of Distribution (VT), Tumor",U87MG tumor-bearing mice,2.07±0.12
